Data: PubChem BioAssay (NCI)
Values joined by “and” are separate entries in the source; they are usually repeats but may differ in a detail not shown here. Identical values can stand only once.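 Step 1: Grow cells in 96-well plates. Step 2: Expose to compound for 48 hours at 5 concentrations. Step 3: Interpolate endpoints linearly; if unreached, use highest concentration. GI50 = concentration required for 50% inhibition of growth. TGI: total growth inhibition.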

Tests used:
Experiment in all cases: NCI tumour cell line growth inhibition, 48 h
[1] = tested on: SK-MEL-5 melanoma
[2] = tested on: SR leukemia
[3] = tested on: IGROV1 ovarian
[4] = tested on: NCI-H522 lung
[5] = tested on: NCI-H460 lung
[6] = tested on: UO-31 renal
[7] = tested on: SK-OV-3 ovarian
[8] = tested on: HCT-116 colon
[9] = tested on: NCI/ADR-RES ovarian
[10] = tested on: T-47D breast

| Compound | GI50 [1] [µM] | TGI [1] | GI50 [2] [µM] | TGI [2] [µM] | GI50 [3] [µM] | TGI [3] | GI50 [4] [µM] | TGI [4] | GI50 [5] [µM] | TGI [5] [µM] | GI50 [6] [µM] | TGI [6] | GI50 [7] [µM] | GI50 [8] [µM] | TGI [8] [µM] | GI50 [9] [µM] | TGI [9] [µM] | GI50 [10] [µM] | TGI [10] [µM] | TGI [7] [µM] |
| --- | --- | --- | --- | --- | --- | --- | --- | --- | --- | --- | --- | --- | --- | --- | --- | --- | --- | --- | --- | --- |
| CC(=O)OC(C)(C)/C=C/C(=O)[C@](C)(O)[C@H]1[C@H](O)C[C@@]2(C)[C@@H]3CC=C4[C@@H](C[C@H](O)C(=O)C4(C)C)[C@]3(CO)C(=O)C[C@]12C | 0.171 | 0.894 µM and 1.33 µM | 0.462 | 29.4 | 0.463 | 0.907 µM and 2.89 µM | 0.112 | 0.855 µM and 0.675 µM | 0.407 | 17.9 | 0.251 | 0.883 µM and 0.565 µM | 0.333 | 0.236 | 10 |  |  |  |  |  |
| CN1CCN(C(=O)c2c(NC(=O)NS(=O)(=O)c3ccccc3)sc3c2CCCCC3)CC1 | 20.5 | 40.2 µM | 27.5 | > 100 | > 100 | > 100 µM | 30.4 | 98.6 µM | 51 | > 100 | > 100 | > 100 µM |  |  |  | 34 | > 100 |  |  |  |
| COc1cc(-c2csc(NC(=O)Nc3cc(C(F)(F)F)cc(C(F)(F)F)c3)n2)cc(OC)c1OC | 1.57 | 3.24 µM |  |  | 4.25 | 18.1 µM | 1.6 | 5 µM | 2.74 | 10.8 | 2.85 | 12.1 µM | 2.59 | 2.55 | 10.2 | 2.65 | 12.1 | 1.93 | 9.65 | 8.57 |
| COc1ccc(C2=Nc3c/c(=C\c4c(O)[nH]c5ccc(Cl)cc45)ccc3=N2)cc1 |  |  | 0.693 | 3.4 | 2.16 | 5.28 µM |  |  |  |  | 1.46 | 3.46 µM | 2.23 | 1.55 | 3.1 |  |  | 2.22 | 5.63 | 5.23 |
| COc1ccc2nc(NCN3C(=O)c4ccccc4C3=O)sc2c1 |  | > 100 µM |  |  |  | > 100 µM |  | > 100 µM |  | > 100 |  | > 100 µM |  |  | > 100 |  | > 100 |  | > 100 | > 100 |
| O=C(O)c1ccc([S-])cc1.[Au+].c1ccc(CN2[CH-]N(Cc3ccccc3)C(c3ccccc3)=C2c2ccccc2)cc1 | 0.281 | 1.03 µM | 0.429 | 2.76 | 0.541 | 2.15 µM | 0.285 | 1.2 µM | 0.328 | 1.28 | 0.311 | 1.27 µM | 0.352 | 0.301 | 1.26 |  |  | 0.312 | 1.53 | 1.39 |
| Nc1nc(NC2C=C(CO)C(O)C2O)c([N+](=O)[O-])c(=O)[nH]1 (stereo unspecified) |  | > 100 µM |  | > 100 |  | > 100 µM |  | > 100 µM |  | > 100 |  | > 100 µM |  |  | > 100 |  |  |  |  | > 100 |
| N#C/C(=C\Nc1ccccn1)C(=O)c1ccco1 |  | > 100 µM |  | > 100 |  | > 100 µM |  | > 100 µM |  | > 100 |  | > 100 µM |  |  | > 100 |  | > 100 |  |  | > 100 |
| NC(CC(=O)Nc1ccc(Cl)cc1)=Nc1ccccc1 |  | > 100 µM |  | > 100 |  | > 100 µM |  | > 100 µM |  | > 100 |  | > 100 µM |  |  | > 100 |  |  |  |  | > 100 |
| CC(=O)OC1CC[C@@]2(C)C(CC[C@]3(C)C2CC=C2[C@@H]4CC(C)(C)CCC4(C)CCC23C)[C@@]1(C)C(=O)O (stereo partly specified) |  | 47.9 µM |  | > 78.3 |  | 38.6 µM |  | 22.6 µM |  | 37 |  | 35.9 µM |  |  | 46.9 |  |  |  | 44.9 | 31.2 |
| Cc1ccc(C(=O)N2CCN(C(=O)c3ccc(C)cc3)c3ccccc32)cc1 |  | 43.5 µM |  | > 100 |  | > 100 µM |  | 5.96 µM |  | > 100 |  | > 56.6 µM |  |  | > 62.6 |  |  |  | > 100 | 25 |
| CCOC(=O)[C@H]1CSC[C@@H](C(=O)OC)N1 |  | > 100 µM |  | > 100 |  | > 100 µM |  | > 100 µM |  | > 100 |  | > 100 µM |  |  | > 100 |  |  |  |  | > 100 |
| CCCOC(=O)N[C@H]1CCc2cc(OC)c(OC)c(OC)c2-c2ccc(SC)c(=O)cc21 | < 0.01 | 0.018 µM | < 0.01 | > 56.3 | < 0.01 | > 100 µM | < 0.01 | 7.25 µM | < 0.01 | 11.7 |  | 42 µM |  | < 0.01 | 14.8 | 0.0268 | > 100 |  |  |  |
| COc1cc(C=O)c(-c2cc3c(cc2C2(C)OCCS2)OCO3)c(OC)c1OC (stereo unspecified) |  | 35.3 µM |  | 50 |  | > 169 µM |  | 13 µM |  | > 75.6 |  | 64.2 µM |  |  | 28.2 |  |  |  |  | > 239 |
| CC1(C)CCC[C@]2(C)c3cc(O)ccc3CC[C@@H]12 | 11.3 | 23.4 µM | 8.72 | > 100 | 20.4 | 38.8 µM | 21.5 | 47.4 µM | 18.6 | 40.9 | 19.9 | 40.2 µM |  | 42.2 | > 100 | 16.5 | 32.5 |  |  |  |
